Literature values as cited in patent publication US20080274094A1, “Molecular Complex Comprising Arbutine, Ascorbic Acid, Oleuropeina or Its Derivatives Thereof and Related Uses In Medical Field” (MED CARE S.R.L., priority 2005, published 2008).

Tests used:
[1] = system: cultured human melanocytes; details: Pigment Cell Res. 1998; mechanism other than induction of tyrosinase activity
TNF alpha receptors = details: Biochem Pharmacol 1999, Mancini et al.

Structure (SMILES)	pigmentation of cultured human melanocytes [1]	effect on TNF alpha receptors (TNF alpha receptors)
OC[C@H]1O[C@@H](Oc2ccc(O)cc2)[C@H](O)[C@@H](O)[C@@H]1O [Arbutin]	increases the pigmentation	
Cc1ccc(C(=O)Nc2ccc(S(=O)(=O)O)c3cc(S(=O)(=O)O)cc(S(=O)(=O)O)c23)cc1NC(=O)c1cccc(NC(=O)Nc2cccc(C(=O)Nc3cc(C(=O)Nc4ccc(S(=O)(=O)O)c5cc(S(=O)(=O)O)cc(S(=O)(=O)O)c45)ccc3C)c2)c1 [suramin]		inhibitory effect
